In patent US8399439B2, “2-methylene-19,26-dinor-(20S,22E,25R)-vitamin D analogs” (Wisconsin Alumni Research Foundation, priority 2008, dated 2013):
pEC50, pKi: −log10 of the molar value.

Columns and labels:
vitamin D-deficient rats [1] = assay: Bone calcium mobilization (serum calcium); assay type: in vivo, rat; conditions: rats on low calcium diet (0.02%), FIG. 4
Protocol: (§1) Male, weanling Sprague-Dawley rats were placed on Diet 11 (0.47% Ca) diet+AEK oil for one week followed by Diet 11 (0.02% Ca)+AEK oil for 3 weeks. The rats were then switched to a diet containing 0.47% Ca for one week followed by two weeks on a diet containing 0.02% Ca. Dose administration began during the last week on 0.02% calcium diet. Four consecutive ip doses were given approximately 24 hours apart. Twenty-four hours after the last dose, blood was collected from the severed neck and the concentration of serum calcium determined as a measure of bone calcium mobilization. The first 10 cm of the intestine was also collected for intestinal calcium transport analysis using the everted gut sac method.
Calcium mobilization from bone and intestinal calcium absorption in vitamin D-deficient animals. Using vitamin D-deficient rats on a low calcium diet (0.02%), the activities of SOR-1 and 1,25(OH)2D3 in intestine and bone were tested.

[2] = system: 24-hydroxylase (24Ohase) gene promoter; assay: In vitro transcription assay, luciferase reporter in ROS 17/2.8 (bone) cells; assay type: cell-based; conditions: for pEC50: ROS 17/2.8 cells, 24-hydroxylase promoter-luciferase, 16 h, FIG. 3, read-out: EC50, transcriptional activity in bone cells
Protocol: Transcription activity was measured in ROS 17/2.8 (bone) cells that were stably transfected with a 24-hydroxylase (24Ohase) gene promoter upstream of a luciferase reporter gene (Arbour et al., 1998). Cells were given a range of doses. Sixteen hours after dosing the cells were harvested and luciferase activities were measured using a luminometer.
RLU=relative luciferase units.

HL-60 cells = assay: HL-60 cell differentiation (nitro blue tetrazolium reduction); assay type: cell-based, human; conditions: for pEC50: HL-60 cells, 4 days, FIG. 2
Protocol: The study drugs were dissolved in ethanol and the concentrations determined using UV spectrophotometry. Serial dilutions were prepared so that a range of drug concentrations could be tested without changing the final concentration of ethanol (≦0.2%) present in the cell cultures.
Human promyelocytic leukemia (HL60) cells were grown in RPMI-1640 medium containing 10% fetal bovine serum. The cells were incubated at 37° C. in the presence of 5% CO2.
HL60 cells were plated at 1.2×10^5 cells/ml. Eighteen hours after plating, cells in duplicate were treated with drug. Four days later, the cells were harvested and a nitro blue tetrazolium reduction assay was performed (Collins et al., 1979; J. Exp. Med. 149:969-974). The percentage of differentiated cells was determined by counting a total of 200 cells and recording the number that contained intracellular black-blue formazan deposits. Verification of differentiation to monocytic cells was determined by measuring phagocytic activity (data not shown).

vitamin D-deficient rats [3] = assay: Intestinal calcium transport (everted gut sac method); assay type: in vivo, rat; conditions: FIG. 5
Protocol: as §1
Intestinal calcium transport was evaluated in the same group of animals using the everted gut sac method (FIG. 5).

[4] = target: T1, full-length recombinant rat vitamin D receptor (Rattus norvegicus, UniProt P13053); assay: Vitamin D receptor competitive binding with [3H]-1,25(OH)2D3; conditions: full-length recombinant rat VDR; FIG. 1; read-out: Ki, competition with [3H]-1,25(OH)2D3 for binding to vitamin D receptor
T1 construct: Full-length recombinant rat receptor was expressed in E. coli; His tag (C); made in house; host or cells: E. coli BL21 (DE3) Codon Plus RIL
T1 sequence (P13053 1-423): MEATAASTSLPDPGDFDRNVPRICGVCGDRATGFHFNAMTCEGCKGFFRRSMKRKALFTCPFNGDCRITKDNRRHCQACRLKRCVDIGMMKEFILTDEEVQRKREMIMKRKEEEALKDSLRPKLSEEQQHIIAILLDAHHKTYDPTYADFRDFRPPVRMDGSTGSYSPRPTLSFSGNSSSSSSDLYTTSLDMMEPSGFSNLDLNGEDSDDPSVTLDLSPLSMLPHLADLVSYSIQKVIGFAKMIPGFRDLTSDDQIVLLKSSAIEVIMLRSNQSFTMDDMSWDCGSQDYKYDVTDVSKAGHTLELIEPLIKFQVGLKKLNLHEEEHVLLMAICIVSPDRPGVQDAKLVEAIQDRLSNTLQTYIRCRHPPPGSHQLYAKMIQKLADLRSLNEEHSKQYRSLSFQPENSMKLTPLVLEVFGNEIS
Protocol: Full-length recombinant rat receptor was expressed in E. coli BL21 (DE3) Codon Plus RIL cells and purified to homogeneity using two different column chromatography systems. The first system was a nickel affinity resin that utilizes the C-terminal histidine tag on this protein. The protein that was eluted from this resin was further purified using ion exchange chromatography (S-Sepharose Fast Flow). Aliquots of the purified protein were quick frozen in liquid nitrogen and stored at −80° C. until use. For use in binding assays, the protein was diluted in TEDK50 (50 mM Tris, 1.5 mM EDTA, pH7.4, 5 mM DTT, 150 mM KCl) with 0.1% Chaps detergent. The receptor protein and ligand concentration were optimized such that no more than 20% of the added radiolabeled ligand was bound to the receptor.
Radiolabeled and unlabeled ligands were added to 100 mcl of the diluted protein at a final ethanol concentration of ≦10%, mixed and incubated overnight on ice to reach binding equilibrium. The following day, 100 mcl of hydroxylapatite slurry (50%) was added to each tube and mixed at 10-minute intervals for 30 minutes. The hydroxylapaptite was collected by centrifugation and then washed three times with Tris-EDTA buffer (50 mM Tris, 1.5 mM EDTA, pH 7.4) containing 0.5% Titron X-100. […] Total binding was determined from the tubes containing only radiolabeled ligand.

[5] = 780 pmol/day ip for 4 consecutive days
[6] = 2,340 pmol/day ip for 4 consecutive days
[7] = fold more active than 1α,25-dihydroxyvitamin D3

| SMILES | bone calcium mobilization (vitamin D-deficient rats [1]; [5]) | serum calcium levels (vitamin D-deficient rats [1]; all dosages) | pEC50 [2] | pEC50 (HL-60 cells) | bone calcium mobilization (vitamin D-deficient rats [1]; [6]) | intestinal calcium transport activity (vitamin D-deficient rats [3]; [5]) | intestinal calcium transport activity (vitamin D-deficient rats [3]; [6]) | transcriptional activity in bone cells relative to 1α,25-dihydroxyvitamin D3 [2, 7] | pKi [4] | pEC50 (HL-60 cells; Homo sapiens, 96 h) | HL-60 cell differentiation activity relative to 1α,25-dihydroxyvitamin D3 (HL-60 cells; [7]) |
| --- | --- | --- | --- | --- | --- | --- | --- | --- | --- | --- | --- |
| C=C1/C(=C\C=C2/CCC[C@]3(C)[C@@H]([C@H](C)CCCC(C)(C)O)CC[C@@H]23)C[C@@H](O)C[C@@H]1O [1α,25-dihydroxyvitamin D3, reference compound] | significant activity | increased serum calcium levels at all dosages | 9.70 | 8.70 | – | – | – | – | – | – | – |
| C=C1[C@H](O)CC(=C/C=C2\CCC[C@]3(C)[C@@H]([C@@H](C)/C=C/C[C@@H](C)O)CC[C@@H]23)C[C@H]1O [SOR-1, 2-methylene-19,26-dinor-(20S,22E,25R)-1α,25-dihydroxyvitamin D3] | – | – | 10.10 | – | did not result in any mobilization of bone calcium | almost no activity as compared to 1,25(OH)2D3 | activity similar to 1,25(OH)2D3 | about 3 times | 10.00 | 9.05 | about 3 times |
